PMC3445454, “Broad and Cross-Clade CD4^+ T-Cell Responses Elicited by a DNA Vaccine Encoding Highly Conserved and Promiscuous HIV-1 M-Group Consensus Peptides” (PLoS ONE, 2012)
Substitutions are numbered along the chain they refer to. Read-outs that look alike come from different tables or passages of the source. Ends that are not written are not given here.

How the values were obtained:
Assay in all cases: biochemical
HLA-DR DRB1*08:02 = HLA-DR DRB1*08:02 (Homo sapiens, UniProt P01903+P01911, A100R/A103L/A169T/F76Y/H45Y/I96F/K41T/L162R/M171V/P40S/Q125H/Q178H/Q39Y/Q99D/R218S/R42G/S66Y/V115G/W38E); assay type: binding
[1] = target: T1, HLA-DP DPA1*02:01/DPB1*14:01 (Homo sapiens, UniProt P04440+P20036, A65V/A84D/A85E/E86D/F191V/F38H/G113D/G114E/G40L/I94L/K142R/L158P/L37V/M105V/M116V/M62Q/P115A/Q81R/R125K/T114A/T199I/T259P); assay type: binding; settings: read-out: Binding capacity/IC50 (nM) DPA1*02:01 DPB1*14:01
T1 sequence (P20036 29-260 A42M/M62Q/Q81R/T114A/K142R/L158P/F191V/T259P): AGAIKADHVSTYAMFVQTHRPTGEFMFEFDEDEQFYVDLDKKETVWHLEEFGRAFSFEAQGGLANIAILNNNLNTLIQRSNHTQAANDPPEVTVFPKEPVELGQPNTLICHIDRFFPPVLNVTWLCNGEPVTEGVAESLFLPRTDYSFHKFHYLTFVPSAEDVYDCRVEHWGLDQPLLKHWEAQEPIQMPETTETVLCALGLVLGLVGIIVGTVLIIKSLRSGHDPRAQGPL
T1 sequence (P04440 30-258 L37V/F38H/G40L/A65V/A84D/A85E/E86D/I94L/M105V/G113D/G114E/P115A/M116V/R125K/T199I/R223Q): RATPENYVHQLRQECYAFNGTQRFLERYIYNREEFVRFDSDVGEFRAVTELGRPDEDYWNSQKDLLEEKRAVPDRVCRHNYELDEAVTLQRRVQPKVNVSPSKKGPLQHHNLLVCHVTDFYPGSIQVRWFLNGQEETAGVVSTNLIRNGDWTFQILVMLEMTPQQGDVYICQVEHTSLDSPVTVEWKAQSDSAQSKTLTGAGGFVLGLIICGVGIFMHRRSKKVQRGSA

[2] = target: T2, HLA-DP DPA1*01:03/DPB1*04:01 (Homo sapiens, UniProt P04440+P20036); assay type: binding
T2 sequence (P20036 29-260): T1 sequence (P20036 29-260 A42M/M62Q/Q81R/T114A/K142R/L158P/F191V/T259P) with M14A, Q34M, R53Q, A86T, R114K, P130L, V163F, P231T
T2 sequence (P04440 30-258): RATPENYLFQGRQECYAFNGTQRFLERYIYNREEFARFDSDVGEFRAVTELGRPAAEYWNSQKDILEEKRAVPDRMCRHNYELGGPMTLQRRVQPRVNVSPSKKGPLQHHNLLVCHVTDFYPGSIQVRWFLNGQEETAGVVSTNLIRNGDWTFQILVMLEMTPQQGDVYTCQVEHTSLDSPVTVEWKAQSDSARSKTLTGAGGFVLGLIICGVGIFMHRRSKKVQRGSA

[3] = target: HLA-DP DPA1*02:01/DPB1*01:01 (Homo sapiens, UniProt P04440+P20036, F191V/F38Y/F64Y/G113D/G114E/K142R/L158P/L37V/M105V/M116V/M62Q/P115A/Q81R/R125K/R223Q/T114A/T199I/T259P)
HLA-DR DRB1*07:01 = HLA-DR DRB1*07:01 (Homo sapiens, UniProt P01903+P01911, A100R/A102G/A103Q/D57E/D86V/E43K/F76Y/K127E/L162R/M171V/P40G/Q125H/Q99D/R33Q/R42Y/R54Q/S133A/S66F/T210M/V115G/Y107V/Y59L/Y89S); assay type: binding
HLA-DR DRB1*10:01 = HLA-DR DRB1*10:01 (Homo sapiens, UniProt P01903+P01911, A100R/A169T/D57E/F55L/F60V/F69Y/F76Y/I96L/L162R/M171V/P40V/Q260P/Q39E/Q99R/R195Q/R42F/S149N/S66Y/T210M/V115G/V67A/W38E/Y59R/Y61H); assay type: binding
HLA-DR DRB1*12:01 = HLA-DR DRB1*12:01 (Homo sapiens, UniProt P01903+P01911, A100R/A169T/D57E/D86V/F55L/H45Y/K41T/L162R/M171V/P40S/Q125H/Q178H/Q39Y/Q99D/R42G/S66L/T262R/V114A/V67L/W38E/Y59H/Y61H/Y89S); assay type: binding
HLA-DR DRB4*01:01 = HLA-DR DRB4*01:01 (Homo sapiens, UniProt P01903+P13762, G164S); assay type: binding; settings: read-out: Binding capacity/IC50 (nM) DRB4*01:01
HLA-DR DRB1*16:02 = HLA-DR DRB1*16:02 (Homo sapiens, UniProt P01903+P01911, A100R/F76Y/I96L/Q99D/V115G); assay type: binding
HLA-DR DRB1*01:01 = HLA-DR DRB1*01:01 (Homo sapiens, UniProt P01903+P01911, A100R/D57E/F55L/F60I/F76Y/I96L/L162R/M171V/P40L/Q125E/R42F/V115G/Y59C); assay type: binding
[4] = target: T3, HLA-DP DPA1*01:03/DPB1*20:01 (Homo sapiens, UniProt P04440+P20036, A65V/A84D/A85E/E86D/F38Y/G113D/G114E/G40L/I94L/L37V/M116V/P115A/R125K/T199I); assay type: binding; settings: read-out: Binding capacity/IC50 (nM) DPA1*01:03 DPB1*20:01
T3 sequence (P20036 29-260): T1 sequence (P20036 29-260 A42M/M62Q/Q81R/T114A/K142R/L158P/F191V/T259P) with M14A, Q34M, R53Q, A86T, R114K, P130L, V163F, P231T
T3 sequence (P04440 30-258 L37V/F38Y/G40L/A65V/A84D/A85E/E86D/I94L/G113D/G114E/P115A/M116V/R125K/T199I/V234M): T1 sequence (P04440 30-258 L37V/F38H/G40L/A65V/A84D/A85E/E86D/I94L/M105V/G113D/G114E/P115A/M116V/R125K/T199I/R223Q) with H9Y, V76M, Q194R, V205M

[5] = target: HLA-DP DPA1*03:01/DPB1*04:02 (Homo sapiens, UniProt P04440+P20036, A42M/A65V/A84D/A85E/L207M/L97S)
[6] = read-out: Binding capacity/IC50 (nM) DPA1*01:03 DPB1*04:01

Row | Compound | IC50 (HLA-DR DRB1*08:02; read-out: Binding capacity/IC50 (nM) DRB1*08:02) | IC50 [1] | IC50 [2] | IC50 [3] | IC50 (HLA-DR DRB1*07:01; read-out: Binding capacity/IC50 (nM) DRB1*07:01) | IC50 (HLA-DR DRB1*10:01; read-out: Binding capacity/IC50 (nM) DRB1*10:01) | IC50 (HLA-DR DRB1*12:01; read-out: Binding capacity/IC50 (nM) DRB1*12:01) | IC50 (HLA-DR DRB4*01:01) | IC50 (HLA-DR DRB1*16:02; read-out: Binding capacity/IC50 (nM) DRB1*16:02) | IC50 (HLA-DR DRB1*01:01; read-out: Binding capacity/IC50 (nM) DRB1*01:01) | IC50 [4] | IC50 [5] | IC50 (HLA-DR DRB1*08:02) | IC50 (HLA-DR DRB1*07:01) | IC50 (HLA-DR DRB1*10:01) | IC50 (HLA-DR DRB1*12:01) | IC50 (HLA-DR DRB1*16:02) | IC50 (HLA-DR DRB1*01:01) | IC50 [2, 6]
1 | CC[C@H](C)[C@H](NC(=O)[C@H](CCCCN)NC(=O)[C@H](CCC(N)=O)NC(=O)[C@@H](NC(=O)[C@H](C)NC(=O)[C@H](CCC(=O)O)NC(=O)[C@@H](N)[C@@H](C)O)C(C)C)C(=O)N[C@@H](C)C(=O)N[C@H](C(=O)N[C@@H](CCC(=O)O)C(=O)N[C@@H](CO)C(=O)N[C@H](C(=O)N[C@H](C(=O)N[C@H](C(=O)N[C@@H](Cc1c[nH]c2ccccc12)C(=O)NCC(=O)N[C@@H](CCCCN)C(=O)N[C@H](C(=O)N1CCC[C@H]1C(=O)N[C@@H](CCCCN)C(=O)N[C@@H](Cc1ccccc1)C(=O)N[C@@H](CCCNC(=N)N)C(=O)N[C@@H](CC(C)C)C(N)=O)[C@@H](C)O)[C@@H](C)CC)C(C)C)[C@@H](C)CC)[C@@H](C)O [RT(369-391)] | 24 nM | 78 nM | 3220 nM | 1540 nM | 20 nM | 24 nM | 471 nM | 20 nM | 2130 nM | 65 nM | 972 nM | 1740 nM |  |  |  |  |  |  | 
2 | VVIQDNSDIKVVPRRKAKII-NH2 [integrase(249-268)] |  | 3980 nM | 9120 nM | 5730 nM |  |  |  | 847 nM |  |  | 1080 nM | 3670 nM | 89 nM | 5710 nM | 913 nM | 2280 nM | 500 nM | 110 nM | 
3 | CC[C@H](C)[C@H](NC(=O)[C@H](C)NC(=O)[C@H](CCCCN)NC(=O)[C@H](CCCCN)NC(=O)CNC(=O)[C@H](CS)NC(=O)[C@@H](NC(=O)[C@H](CCC(=O)O)NC(=O)[C@@H](NC(=O)[C@H](CC(C)C)NC(=O)[C@@H](NC(=O)[C@H](CCC(N)=O)NC(=O)[C@H](CC(=O)O)NC(=O)[C@H](Cc1ccc(O)cc1)NC(=O)[C@H](CCC(N)=O)NC(=O)[C@H](CCCNC(=N)N)NC(=O)[C@@H](NC(=O)[C@H](CCCCN)NC(=O)[C@@H](NC(=O)[C@@H](N)Cc1ccccc1)[C@@H](C)CC)C(C)C)[C@@H](C)CC)[C@@H](C)CC)[C@@H](C)CC)C(=O)NCC(=O)N[C@H](C(=O)N[C@H](C(N)=O)C(C)C)[C@@H](C)O [protease(53-75)] |  | 1250 nM |  | 112 nM |  |  |  | 302 nM |  |  | 19 nM | 342 nM | 325 nM | 1770 nM | 62 nM | 77 nM | 388 nM | 29 nM | 452 nM
4 | CC(C)C[C@H](NC(=O)[C@H](CCCCN)NC(=O)[C@@H](NC(=O)[C@H](CC(C)C)NC(=O)[C@@H]1CCCN1C(=O)[C@@H]1CCCN1C(=O)[C@@H](NC(=O)[C@H](CC(N)=O)NC(=O)[C@@H](NC(=O)[C@H](Cc1ccccc1)NC(=O)[C@H](CCC(=O)O)NC(=O)[C@H](Cc1c[nH]c2ccccc12)NC(=O)[C@@H](N)CCC(=O)O)C(C)C)[C@@H](C)O)C(C)C)C(=O)N[C@@H](Cc1c[nH]c2ccccc12)C(=O)N[C@@H](Cc1ccc(O)cc1)C(N)=O [RT(413-427)] |  | 1200 nM |  | 101 nM |  |  |  | 1420 nM |  |  | 1070 nM | 7 nM | 58 nM | 39 nM | 12 nM | 260 nM | 10 nM | 26 nM | 846 nM
